Assay results reported in patent US10085981B2, “Protein acyl transferase inhibitors and methods of treatment” (UNIVERSITY OF SOUTH FLORIDA, priority 2015, dated 2018).
Where two headings read alike, the source gives them in different places.

Assays:
Erf2 [1] = target: T1, Erf2 (Saccharomyces cerevisiae, UniProt Q06551); assay: Fluorescence-based coupled PAT assay of the rate of Erf2 autopalmitoylation; type: biochemical, S. cerevisiae; settings: for mode of inhibition of Erf2 autopalmitoylation: inhibitor titrations varying inhibitor and palmitoyl-CoA
T1 construct: made in house; host or cells: Saccharomyces cerevisiae strain RJY1842 (erf4Δ/erf4Δ), galactose-induced pESC(-Leu) vector, Ni-NTA purified
T1 sequence (Q06551 whole entry): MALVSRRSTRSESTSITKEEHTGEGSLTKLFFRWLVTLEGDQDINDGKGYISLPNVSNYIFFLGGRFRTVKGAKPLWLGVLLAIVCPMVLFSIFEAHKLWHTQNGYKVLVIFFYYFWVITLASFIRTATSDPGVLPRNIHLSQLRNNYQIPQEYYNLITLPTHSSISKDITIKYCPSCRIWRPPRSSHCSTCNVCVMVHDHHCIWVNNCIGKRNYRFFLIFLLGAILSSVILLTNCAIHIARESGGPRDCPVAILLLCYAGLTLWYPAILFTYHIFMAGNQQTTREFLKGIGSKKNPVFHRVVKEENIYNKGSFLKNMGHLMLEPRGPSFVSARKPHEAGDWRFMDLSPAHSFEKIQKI
Description: The HTS application of protein palmitoylation was recently described, but was adjusted for this study. The production of NADH was monitored with a Biotek Mx fluorimeter (Biotek, Winooski, Vt.) using 340 nm excitation/465 nm emission. The 50 μl reaction contained 2 mM 2-Oxoglutarate (α-ketoglutamic acid), 0.25 mM NAD+, 0.2 mM Thiamine Pyrophosphate, 0.5 μg of purified 6×HIS-Erf2-(FLAG)-Erf4, 1 mM EDTA, 1 mM dithiothreitol, 8 mU 2-oxogluarate dehydrogenase (α-ketoglutarate dehydrogenase), 50 mM sodium phosphate, pH 6.8, and 0 100 μM inhibitor in 5% DMF. The reaction was initiated by the addition of 40 μM palmitoyl-CoA and monitored for 30 mins at 30° C. The first 10 mins of the reaction was analyzed to determine the initial rates of CoASH release. The PAT specific activity was determined from a standard curve of NADH production with different CoASH amounts. In these reactions, CoASH was added to the standard PAT reaction mixture (without Erf2/Erf4 complex or palmitoyl-CoA) and the reaction was allowed to proceed to equilibrium before fluorescence was measured.
The identification of palmitoylation inhibitors has been hampered by the lack of assays amenable to high throughput screening applications. Previously, we validated an assay that monitors the rate of autopalmitoylation by measuring the production of CoASH generated from the […] of palmitoyl-CoA [13]. This assay has a Z′-value of 0.87 [13]. […] This assay can be used to monitor autopalmitoylation in real time or as an end point assay, thus providing flexibility when screening small molecule compounds. Compounds with internal fluorescence or that affect the assay components are easily identified and excluded, allowing for the rapid identification of the compounds that inhibit or activate PAT autopalmitoylation activity. […]

Erf2 [2] = target: T1, Erf2; settings: previously demonstrated [13]; cited from earlier work
[3] = tested on: S. cerevisiae RJY1942 (sensitized); assay: Yeast cell spot assay, sensitized strain; type: cell-based; settings: for inhibition at 5 µM: Saccharomyces cerevisiae
Description: (§1) Following 24 hrs incubation with varying concentrations of the inhibitors in 1% DMF, S. cerevisiae strains RJY1941 and RJY1942 were then diluted 1/100, and spotted onto SC-Ura plates with 2% glucose. Cytotoxicity data was obtained by detecting the colony growth, following 48 hrs incubation at 30° C., with white light detection on the Bio-Rad Molecular Imager® ChemiDoc™ XRS+ (Hercules, Calif.) and performing densitometry with Bio-Rad ImageLab™ Software (Hercules, Calif.). Triplicate reactions were plated in triplicate. Values were normalized to vehicle control (1% DMF) for each plate, and then the averages of each reaction were compared for statistical analysis.
(§2) We next compared the ability of either strain to grow following the 24 hrs incubation with Compounds 13, 14, or 25. Serial dilutions of RJY1941 and RJY1942 were spotted on agar plates following incubation for 24 hrs with varying inhibitor concentrations. […] Conversely, compound 13 inhibited (100%) the growth of RJY1942 (sensitized) at 5 μM.

Erf2 [4] = target: T1, Erf2; assay: BODIPY-C12:0 gel-based assay of steady-state Erf2 autopalmitoylation; type: biochemical, S. cerevisiae
Description: BODIPY®-C12:0-CoA (40 μM final, unless specified otherwise) was added to a 50 μl reaction containing approximately 0.5 μg enzyme (6×HIS-Erf2-(FLAG)-Erf4) and 100 μM inhibitors in 5% DMF in 50 mM sodium phosphate buffer, pH 6.8. The reactions were incubated 10 mins with inhibitor, and then the reaction was initiated with the addition of BODIPY®-C12:0-CoA, and incubated 15 mins at 30° C. The reaction was terminated by the addition of 5× non-reducing protein loading buffer. Each reaction was heated at 65° C. for 3 mins and then subjected to SDS-PAGE (12%). The gel was rinsed three times in ddH2O and visualized on the Typhoon 9410 Variable Mode Imager (GE Healthcare, Piscataway, N.J.) for BODIPY® fluorescence (ex. 488 nm/em. 532 nm) to visualize co-migration of the BODIPY® signal with 6×HIS-Erf2-(FLAG)-Erf4. The amount of 6×HIS-Erf2-(FLAG)-Erf4 was determined empirically using SDS-PAGE analysis under reducing conditions against a standard curve of bovine serum albumin.
To determine if the ten compounds identified in this study were inhibiting autopalmitoylation, and not targeting hydrolysis of the enzyme, steady-state autopalmitoylation was evaluated at 100 μM of each compound compared to 100 μM 2-BP and DMF (vehicle) alone. […] From these screens we observed a decrease in BODIPY® fluorescence at the apparent molecular weight of Erf2. […]

[5] = tested on: S. cerevisiae RJY1942 (palmitoylation sensitive); assay: Growth inhibition assay, palmitoylation-sensitive strain; type: cell-based; settings: for selectivity: EC50 in the control strain RJY1941 as compared to the sensitive strain RJY1942: growth curves, 24 hrs
Description: The in vivo effect of the inhibitors on Ras2 palmitoylation was investigated by comparing the growth of S. cerevisiae strains previously described for our complementation assay. Briefly, the cells contain a defective allele of RAS2 that is balanced by an episomal copy of RAS2 linked to URA3. Under these conditions, the yeast strain cannot grow unless the episomal copy of RAS2 is palmitoylated. Varying concentrations of the inhibitors were added to 200 μl volumes of the yeast cells at an OD600 between 0.8 and 1.2 in a 96-well plate format. The OD600 was observed every 30 mins for 24 hrs and EC50 values were determined by graphing rate of growth against concentration of inhibitor for each inhibitor.
To examine the inhibition of Ras palmitoylation in vivo, we utilized two strains of S. cerevisiae. The yeast strain RJY1942 (palmitoylation sensitive) requires Ras2 palmitoylation for viability. The isogenic wild type control yeast strain (RJY1941) is not dependent on Ras2 palmitoylation for viability. The growth of both strains was monitored in the presence (or absence) of our inhibitors every 30 mins for 24 hrs. EC50 values were calculated using GraphPad Prism® (La Jolla, Calif.) to extrapolate the effective concentration of each inhibitor that caused a 50% reduction in growth (FIG. 9). […] Compounds 13, 25, and 2-BP show a modest selectivity for the sensitive strain, RJY1942, over the control strain, RJY1941, resulting in a 2-fold greater EC50 value in the control strain as compared to the sensitive strain (values listed in FIG. 5, right panel). […] Additional work is needed to determine the mechanism of growth inhibition and selectivity of these compounds.

[6] = tested on: S. cerevisiae RJY1941 (control); assay: Yeast cell spot assay, control strain; type: cell-based
Description: as §1, §2

[7] = spotted after 24 hrs incubation, read-out: inhibition of growth of RJY1942 (sensitized)
[8] = 20 μM, spotted after 24 hrs incubation
[9] = concentrations lower than 20 μM (2.5, 5, 10 μM)

CCCCCCCCCCCCCCC(Br)C(=O)O (stereo not drawn) [Compound 2-BP, 2-bromopalmitic acid, reference compound]
Ki (Erf2 [1]): 59 µM
VMAX for the Palmitoyl-CoA substrate (Erf2 [1]; inhibitor at 25 μM): 160 ± 5 µM
VMAX for the Palmitoyl-CoA substrate (Erf2 [1]; inhibitor at 50 μM): 126 ± 23 µM
VMAX for the Palmitoyl-CoA substrate (Erf2 [1]; inhibitor at 100 μM): 51 ± 8 µM
mode of inhibition of Erf2 autopalmitoylation (Erf2 [2]): uncompetitive or mixed inhibitor
inhibition of yeast growth in spot assay ([3]; 2.5-20 μM on solid yeast medium, strain not specified): did not inhibit
Ki (Erf2 [4]; dose response curves of steady-state autopalmitoylation, read-out: steady-state autopalmitoylation inhibition constant (Ki), gel-based assay): 79 µM
EC50 ([5]; Saccharomyces cerevisiae, read-out: EC50 (50% reduction in growth)): 12.5 µM
selectivity: EC50 in the control strain RJY1941 as compared to the sensitive strain RJY1942 [5]: 2 fold

CC(C)Cc1ccc(C(C)CN2CCNC[C@@H]2CCCCN2CCN(CC(C)c3ccc(CC(C)C)cc3)[C@@H](Cc3ccc(O)cc3)C2)cc1 (stereo partly drawn) [Compound 13, 4-(((2S)-1-(2-(4-isobutylphenyl)propyl)-4-(4-((2S)-1-(2-(4-isobutylphenyl)propyl)piperazin-2-yl)butyl)piperazin-2-yl)methyl)phenol]
VMAX for the Palmitoyl-CoA substrate (Erf2 [1]; inhibitor at 25 μM): 243 ± 20 µM
VMAX for the Palmitoyl-CoA substrate (Erf2 [1]; inhibitor at 50 μM): 354 ± 26 µM
VMAX for the Palmitoyl-CoA substrate (Erf2 [1]; inhibitor at 100 μM): 631 ± 94 µM
mode of inhibition of Erf2 autopalmitoylation (Erf2 [1]): Competitively
inhibition at 5 µM [3, 7]: 100%
inhibition of growth of RJY1941 (control) [6, 8]: completely inhibited
inhibition of growth of RJY1941 (control) [6, 9]: no detectable effect
mode of inhibition of steady-state Erf2 autopalmitoylation (Erf2 [4]; 25, 50, 100 μM compound at varying BODIPY-C12-CoA): acting competitively
selectivity: EC50 in the control strain RJY1941 as compared to the sensitive strain RJY1942 [5]: 2 fold

CC(C)Cc1ccc(C(C)CN2CCNC[C@@H]2CCCCN2CCN(CCc3cc(C(F)(F)F)cc(C(F)(F)F)c3)[C@@H](Cc3ccc(O)cc3)C2)cc1 (stereo partly drawn) [Compound 14, 4-(((2S)-1-(3,5-bis(trifluoromethyl)phenethyl)-4-(4-((2S)-1-(2-(4-isobutylphenyl)propyl)piperazin-2-yl)butyl)piperazin-2-yl)methyl)phenol]
inhibition at 5 µM [3, 7]: ~10%
inhibition of growth of RJY1942 (sensitized) ([3]; concentrations higher than 5 μM): total inhibition
inhibition of growth of RJY1941 (control) [6, 8]: completely inhibited
inhibition of growth of RJY1941 (control) [6, 9]: no detectable effect

CC(C)Cc1ccc(C(C)CN2CCN(CCCC[C@H]3CNCCN3CCc3cc(C(F)(F)F)cc(C(F)(F)F)c3)C[C@@H]2Cc2ccc(O)cc2)cc1 (stereo partly drawn) [Compound 25, 4-(((2S)-4-(4-((S)-1-(3,5-bis(trifluoromethyl)phenethyl)piperazin-2-yl)butyl)-1-(2-(4-isobutylphenyl)propyl)piperazin-2-yl)methyl)phenol]
VMAX for the Palmitoyl-CoA substrate (Erf2 [1]; inhibitor at 25 μM): 307 ± 30 µM
VMAX for the Palmitoyl-CoA substrate (Erf2 [1]; inhibitor at 50 μM): 344 ± 34 µM
VMAX for the Palmitoyl-CoA substrate (Erf2 [1]; inhibitor at 100 μM): 542 ± 60 µM
mode of inhibition of Erf2 autopalmitoylation (Erf2 [1]): Competitively
inhibition at 5 µM ([3]; read-out: inhibition of growth of RJY1942 (sensitized), relative to that observed for compound 13): ~90%
inhibition of growth of RJY1941 (control) [6, 8]: completely inhibited
inhibition of growth of RJY1941 (control) [6, 9]: no detectable effect
selectivity: EC50 in the control strain RJY1941 as compared to the sensitive strain RJY1942 [5]: 2 fold
